The values below come from patent publication US6008240A, “2-(1H-4(5)-imidazoyl) cyclopropyl derivatives” (Gliatech, Inc., priority 1997, dated 1999).

Structures can show the parent of a compound that is named as a salt.

One assay deals with T1, Histamine H3 Receptor (Rattus norvegicus, UniProt Q9QYN8).
T1 construct: from tissue; host or cells: rat cerebral cortex membranes
T1 sequence (Q9QYN8 whole entry): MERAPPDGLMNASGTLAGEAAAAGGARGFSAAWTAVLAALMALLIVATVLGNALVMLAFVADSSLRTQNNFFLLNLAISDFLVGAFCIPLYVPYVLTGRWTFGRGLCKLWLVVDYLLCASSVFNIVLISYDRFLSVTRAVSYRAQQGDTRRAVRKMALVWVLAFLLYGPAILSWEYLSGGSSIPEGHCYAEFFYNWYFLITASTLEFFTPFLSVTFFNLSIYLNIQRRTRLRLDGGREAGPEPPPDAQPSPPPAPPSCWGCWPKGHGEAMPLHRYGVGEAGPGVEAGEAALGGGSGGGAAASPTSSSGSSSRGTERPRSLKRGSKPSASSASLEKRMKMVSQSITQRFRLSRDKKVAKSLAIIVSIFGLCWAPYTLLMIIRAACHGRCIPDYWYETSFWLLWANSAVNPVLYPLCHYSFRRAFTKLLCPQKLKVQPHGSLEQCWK
Briefly: In Vitro Histamine H3 Receptor Binding Analysis ([3H]-Nα-methylhistamine, rat cortical membranes).
Settings: not given
The procedure: Histamine H3 receptor affinity was determined in rat cortical membranes using the H3 selective agonist ligand, [^3 H]-N^α -methylhistamine (78.9 Ci/mmole, DuPont NEN Research Products, Boston, Mass.) according to the method of West et al., (1990) Mol. Pharmacol. 38: 610-613 with modifications. Briefly, animals were sacrificed by decapitation and the cerebral cortex was rapidly removed. Rat cortices were mechanically homogenized with an Omni 1000 motor driven homogenizer in 10 volumes (wt/vol) of Krebs-Ringers Hepes buffer (pH 7.4) containing the following protease inhibitors; EDTA (10 mmol), PMSF (0.1 mM), chymostatin (0.2 mg/50 mL) and leupeptin (0.2 mg/50 mL). The homogenate was centrifuged in a Sorvall at ~40,000 x g for 30 min. The pellet was resuspended by mechanical homogenization in 25 mL water and lysed on ice for 30 min. The homogenate was recentrifuged and the membrane lysis was repeated. The membranes were recentrifuged and the final pellet was resuspended in 14 volumes of water to give approximately 200 μg protein/100 μl final concentration. The suspension was stored at -80° C. prior to use. Protein concentrations were determined by Coomassie Plus Protein Assay (Pierce, Rockford, Ill.).
Nonspecific binding (NSB) was accounted for by the inclusion of thioperamide (10 μM). Samples were incubated for 40 minutes at 25° C. The samples were filtered through glass fiber strips, pre-washed with 0.3% polyethyleneimine, using a Brandell cell harvester. The filters were rapidly washed three times with 4 ml of 25 mM Tris buffer containing 145 mM NaCl (pH 7.4, 4° C.). Filters were transferred to polyethylene minivials and counted in 3.5 ml of scintillation fluid (Ecolume, ICN Biomedicals, Inc.). Using this procedure, the non-specific binding was less than 10% of the total binding and the binding to the glass fiber filters was negligible. Saturation and competition experiments were analyzed with the ReceptorFit saturation and competition curve fitting programs (Lundon Software, Inc., Cleveland, Ohio).
Regarding `CC(C)(C)CC/C=C\[C@H]1C[C@H]1c1c[nH]cn1` [Example 42, (1R,2R)-4-(2-(5,5-Dimethyl-cis-hex-1-enyl)cyclopropyl)imidazole], the affinity corresponds to a Ki of 41 ± 4 nM. For `O=C(NCCCC1CCCCC1)[C@H]1C[C@@H]1c1cnc[nH]1` [Example 30], the Ki is 42 ± 7 nM.

In turn, `O=C(N[C@@H]1C[C@H]1c1cnc[nH]1)OCc1cccc(Br)c1` (relative stereo) [Example 51, (±)-trans-((3-Bromophenyl)methoxy)-N-(2-imidazol-4-ylcyclopropyl) formamide] returned a Ki of 9.9 ± 0.35 nM. In turn, `O=C(NCCCC1CCCCC1)[C@@H]1C[C@H]1c1c[nH]cn1` (relative stereo) [Example 29, N-[3-cyclohexylpropyl]-3(R)-[1H-imidazol-4-yl]-2(R)-cyclopropanamide and N-[3-cyclohexylpropyl]-3(S)-[1H-imidazol-4-yl]-2(S)-cyclopropanamide] had a Ki of 36 ± 8 nM. `C(=C\[C@H]1C[C@@H]1c1c[nH]cn1)/CCC1CCCCC1` [Example 25, (1S, 2S)-trans-4-(2-(4-Cyclohexylbut-trans-1-enyl)cyclopropyl)imidazole] gave a Ki of 56 ± 9 nM. On the same count and under the same terms, for `C[C@@H](NC(=O)[C@@H]1C[C@H]1c1cnc[nH]1)C1CCCCC1` (mixture of isomers) [Example 6, N-[(R)-1-cyclohexylethyl]-3-(1H-imidazol-4-yl)-trans-(2R,3R)-cyclopropanamide and N-[(R)-1-cyclohexylethyl]-3-(1H-imidazol-4-yl)-trans-(2S,3S)-cyclopropanamide hydrochloride] the value was 70 ± 8.6 nM; for `COC(=O)/C=C\[C@@H]1C[C@H]1c1cnc[nH]1` (relative stereo) [Example 53, (±) trans-Methyl-3-(2-imidazol-4-ylcyclopropyl)prop-2-enoate], 21.6 ± 3.6 nM; for `CC(C)CCC#C[C@@H]1C[C@H]1c1cnc[nH]1` (relative stereo) [Example 40, (±)-4-(2-(5-Methylhex-1-ynyl)cyclopropyl)imidazole], 6.5 ± 1.5 nM.

The compound `O=C(CCCC1CCCCC1)[C@@H]1C[C@H]1c1c[nH]cn1` (racemic) [Example 10, (±)-trans-4-cyclohexyl-1-(2-imidazol-4-ylcyclopropyl) butan-1-one] displayed a Ki of 97 ± 21 nM. `N[C@@H](CC1CCCCC1)C(=O)N[C@@H]1C[C@H]1c1cnc[nH]1` [Example 12, (1R,2R)-trans-2-(S)-amino-3-cyclohexyl-N-(2-imidazol-4-ylcyclopropyl)propanamide]: the Ki is 1.85 ± 0.5 nM. `N[C@@H](CC1CCCCC1)C(=O)N[C@H]1C[C@@H]1c1cnc[nH]1` [Example 13, (1S,2S)-trans-2-(S)-amino-3-cyclohexyl-N-(2-imidazol-4-ylcyclopropyl)propanamide] gave an inhibitory constant (Ki) of 21.5 ± 1.8 nM.

On to `C(#C[C@@H]1C[C@H]1c1c[nH]cn1)CCC1CCCC1` (racemic) [Example 54, (±)-trans-4-(2-(4-Cyclopentylbut-1-ynyl)cyclopropyl)imidazole], for which the Ki was found to be 1.43 ± 0.33 nM. As to `O=C(N[C@H]1C[C@@H]1c1c[nH]cn1)[C@@H]1CC2CCCCC2N1` (stereo partly drawn) [Example 15, (2S, 3S)-trans-(7-Azabicyclo[4.3.0]non-(S)-8-yl)-N-(2-imidazol-4-ylcyclopropyl)formamide], the Ki was 37 ± 4 nM. Consider `O=C(NCC1CCCCC1)[C@@H]1C[C@H]1c1c[nH]cn1` (relative stereo) [Example 2, (±)-trans-N-(cyclohexylmethyl)(2-imidazol-4-ylcyclopropyl)formamide], for which the affinity, expressed as Ki, was 37 ± 4 nM.

In turn, `C(#C[C@@H]1C[C@H]1c1c[nH]cn1)CCC1CCCCC1` (racemic) [Example 55, (±)trans-4-(2-(4-cyclohexylbut-1-ynyl)cyclopropyl)imidazole] came in with a Ki of 1.8 ± 0.64 nM. Turning to `O=C(N[C@@H]1C[C@H]1c1c[nH]cn1)OCc1ccccc1` (relative stereo) [Example 26, (±)-trans-N-(2-imidazol-4-ylcyclopropyl)(phenylmethoxy)formamide], the Ki stood at 5.8 ± 0.4 nM.

In turn, `O=C(N[C@@H]1C[C@H]1c1c[nH]cn1)OCCC1CCCCC1` (relative stereo) [Example 46, (±)-trans-(Cyclohexylethoxy)-N-(2-imidazol-4-cyclopropyl) formamide] showed an inhibition constant (Ki) of 29 ± 1.2 nM. `O=C(NCc1ccccc1)[C@@H]1C[C@H]1c1c[nH]cn1` (relative stereo) [Example 1, N-(1-benzyl)-3-[(1H-imidazol-4-yl)]-(2R,3R)-trans-cyclopropanamide and N-(1-benzyl)-3-[(1H-imidazol-4-yl)]-(2S,3S)-trans-cyclopropanamide hydrochloride] gave an inhibition constant (Ki) of 53 ± 2 nM. Compound `C(=C/[C@@H]1C[C@H]1c1c[nH]cn1)/CCC1CCCCC1` (relative stereo) [Example 16, (±)-trans4-(2-(4-Cyclohexylbut-cis-1-enyl)cyclopropyl)imidazole] displayed a Ki of 12.2 ± 1 nM.

Staying with this assay, now noted: rat cortical membranes; 0.8-1.2 nM [3H]-Nα-methylhistamine; 40 minutes at 25° C.; pH 7.4; read-out: H3 Receptor Ki.
With `O=C(NCCCCC1CCCCC1)[C@@H]1C[C@H]1c1c[nH]cn1` (relative stereo) [Example 37, (±)-trans-N-(4-Cyclohexylbutyl)(2-imidazol-4-ylcyclopropyl)formamide], the Ki stood at 68 ± 9.1 nM. Consider `C(=C/[C@H]1C[C@@H]1c1c[nH]cn1)/CCC1CCCCC1` [Example 24, (1S, 2S)-trans-4-(2-(4-Cyclohexylbut-cis-1-enyl)cyclopropyl)imidazole], for which the Ki came out at 108 ± 3 nM. For the compound `O=C(NCCCc1ccccc1)[C@@H]1C[C@H]1c1c[nH]cn1` (relative stereo) [Example 33, (±)-trans-(2-imidazol-4-ylcyclopropyl)-N-(3-phenylpropyl) formamide], the Ki was 197 ± 23 nM. `O=C(NCCC1CCCCC1)C1CC1c1c[nH]cn1` [Example 27, (1S, 2S)-trans-N-(2-Cyclohexylethyl)(2-imidazol-4-ylcyclopropyl)formamide]: the Ki turned out to be 8.8 ± 0.1 nM. Turning to `N[C@H](Cc1ccc(Br)cc1)C(=O)N[C@@H]1C[C@H]1c1c[nH]cn1` (racemic) [Example 43, (1R,2R)-trans-(±)-2-Amino-3-(4-bromophenyl)-N-(2-imidazol-4-ylcyclopropyl)propanamide], the Ki came to 13.7 ± 1.5 nM. Still for that read-out and setting: for `N[C@@H](Cc1ccc(I)cc1)C(=O)N[C@@H]1C[C@H]1c1cnc[nH]1` [Example 44] the value was 10.4 ± 1.6 nM; for `CC1CCCCN1CCCNC(=O)[C@@H]1C[C@H]1c1c[nH]cn1` (relative stereo) [Example 3, (±)-trans-(2-imidazol-4-ylcyclopropyl)-N-(3-((±)-2-methylpiperidyl)propyl)formamide], 659 ± 52 nM. On the same count and under the same terms, for `N[C@@H](Cc1ccc(Br)cc1)C(=O)N[C@@H]1C[C@H]1c1c[nH]cn1` [Example 45] the value was 9.4 ± 1.1 nM. With `CC(C)(C)CCC#C[C@@H]1C[C@H]1c1c[nH]cn1` (relative stereo) [Example 38, (±)-4-(2-(5,5-Dimethylhex-1-ynyl)cyclopropyl)imidazole], the inhibition constant Ki is 0.33 ± 0.1 nM. Consider `CN(CC1CCCCC1)C(=O)[C@@H]1C[C@H]1c1c[nH]cn1` (racemic) [Example 11, (±)-trans-N-(cyclohexylmethyl)(2-imidazol-4-ylcyclopropyl)-N-methylformamide], for which the Ki worked out at 134 ± 1 nM. Regarding `O=C(Nc1ccccc1)[C@@H]1C[C@H]1c1c[nH]cn1` (relative stereo) [Example 5, N-(phenyl)-3-(1H-imidazol-4-yl)-trans-(2R,3R)-cyclopropanamide and N-(phenyl)-3-(1H-imidazol-4-yl)-trans-(2S,3S)-cyclopropanamide hydrochloride], the Ki worked out at 267 ± 26 nM. With `O=C(NCCc1c[nH]c2ccccc12)[C@@H]1C[C@H]1c1c[nH]cn1` (relative stereo) [Example 35, (±)-trans-(2-imidazol-4-ylcyclopropyl)-N-(2-indol-3-ylethyl) formamide], the Ki came to 441 ± 73 nM. On to `O=C(NCC(O)CC1CCCCC1)[C@@H]1C[C@H]1c1c[nH]cn1` (relative stereo) [Example 36, (±)-trans-N-(3-Cyclohexyl-2-(±)-hydroxypropyl)(2-imidazol-4-ylcyclopropyl)formamide], for which the Ki was found to be 145 nM.

`O=C(NCCc1ccccc1)[C@@H]1C[C@H]1c1c[nH]cn1` (relative stereo) [Example 9, (±)-trans-(2-imidazole-4-ylcyclopropyl)-N-(2-phenylethyl)formamide]: the Ki was found to be 163 ± 19 nM.

In the case of `O=C(NCC1CCCCC1)[C@@H]1C[C@H]1c1c[nH]cn1` [Example 2b], the inhibition constant (Ki) amounted to 176 ± 9 nM.

Staying with this assay, now noted: read-out: H3 Receptor Ki; rat cortical membranes; 0.8-1.2 nM [3H]-Nα-methylhistamine; 40 minutes at 25° C.; pH 7.4.
Turning to `N[C@H](/C=C/[C@@H]1C[C@H]1c1c[nH]cn1)CC1CCCCC1` [Example 20, (1R,2R)-trans-1-Cyclohexyl-4-(2-imidazol-4-ylcyclopropyl)but-trans-3-en-2(S)-ylamine], the Ki stood at 0.37 ± 0.2 nM.

For orientation: Ki means the dissociation constant of the complex between target and ligand, obtained from inhibition or displacement.
